Several values for one entry are separate records, joined by “and”; a condition that tells them apart may be missing. Equal entries are not always repeated. Where two headings read alike, the source gives them in different places.
Key:
[1] = tested on: anaesthetized Sprague-Dawley rats; assay: Cardiac effects by ECG and echocardiography in anaesthetized rats; assay type: in vivo, rat; details: for Ejection Fraction / Heart rate / PR interval / QT interval / Stroke Volume: anaesthetized SD rats, 30 s after administration, mean ± SD
Experimental: The animals received humane care, and all experimental procedures were carried out in accordance with the “Principles of Laboratory Animal Care” by EU Directive 2010/63/EU. All experimental protocols were approved by the local Ethics Committee of University of Debrecen (25/2023/DEMÁB). Animal experiments are reported in compliance with the ARRIVE guidelines. Anesthesia was carried out using ketamine/xylazine mixture (100/10 mg/kg, i.m.). The chest was shaved and the animal was placed onto a heated pad (VisualSonics SR200, VisualSonics, Amsterdam, The Netherlands). The lateral tail vein was cannulated using a heparinized 26G i.v. cannula (BD Neoflon, BD Medical, NJ, USA). B-mode and M-mode echocardiography was carried out before and 30 s after the intravenous administration of the compounds. A high-resolution ultrasound machine (Vevo 3100 Imaging Station, VisualSonics, Amsterdam, The Netherlands) equipped with a […] transducer (MX201) was used for assessing cardiac parameters. Traces were obtained from the parasternal long axis view (PLAX). A B-mode video and an M-mode trace was recorded, and the following parameters were then offline analysed: left ventricle (LV) end-systolic and end-diastolic volume (LVESV, LVEDV, respectively) fractional shortening (FS) and ejection fraction (EF) and stroke volume (SV).
A 3-channel ECG was continuously recorded during the experiments (Vevo monitor ECG, VisualSonics, Amsterdam, The Netherlands). On the recorded ECG data, RR, PR and QT intervals, and heart rate (HR) were determined before and 30 s after the administration of the drugs, and 6 consecutive cardiac cycles were averaged for each parameter.
Statistical analyses for the in vivo studies were carried out using the GraphPad Prism 9.0 software (GraphPad Software, San Diego, CA, USA). Data distribution was assessed by the Shapiro-Wilk normality test, and paired t-test were used to determine the differences between the baseline (drug free) and endpoint (treated) parameters in each group. A multiple comparison was also carried out between the treatment groups by using one-way ANOVA with Tukey multiple comparison test. Data was shown as mean ± SD, and differences with p < 0.05 were considered significant.

[2] = DPPH radical scavenging assay; details: for DPPH inhibition ratio (IR) after 30-min incubation / DPPH inhibition ratio (IR) immediately: 0.5 mM
Experimental: DPPH is a stable free radical with a deep violet color that changes to yellow when neutralized by an electron or hydrogen radical, indicating the antioxidant activity of the sample being tested. The DPPH radical scavenging abilities were investigated following the method outlined by Shimamura et al., with minor adjustments. In this study, a cardiovascular tissue homogenate was used to induce H2S release from the dithioacetate derivatives 22 and 24, as well as GYY4137. A mixed solution of 1.2 mL of methanol and 800 µL of 0.1 M Tris-HCl buffer (pH 7.4) served as the blank. 1 mL DPPH solution was added to a mixture of methanol and 0.1 M Tris-HCl buffer (200:800 µL). After mixing, the absorbance was recorded at 517 nm on a UV-1600 PC VWR spectrophotometer (VWR, China). To avoid any potential interference from the heart extract in the assay, we measured the absorbance after adding different volumes of the extract into the mixture. These measurements were taken both immediately and after 30 min of incubation.
The DPPH antioxidant assay was performed according to the following procedures. 1 mL of DPPH solution was added to a mixture of 200 µL of the methanolic sample solution and 800 µL of 0.1 M Tris-HCl buffer (pH = 7.4). For the groups containing the extract, the extract was introduced into a mixture of the sample solution in PBS buffer, 0.1 M Tris-HCl buffer, and DPPH (200:800:1000 µL). Considering that GYY4137 produces H2S upon hydrolysis, it was introduced last following the addition of the extract into a solution of PBS buffer, 0.1 M Tris-HCl buffer, and DPPH maintained at the same ratio. The same protocol was employed for NaHS without the addition of the extract. After mixing, the absorbance was promptly recorded, after which the solutions were incubated in the dark at room temperature for 30 min before the absorbance was measured again. The test samples were prepared and assayed at varying concentrations using a 2-fold serial dilution method, starting from a concentration of 2 mM. Each investigation was performed in triplicate, and the antioxidant activity was based on the absorbance recorded at 517 nm. Ascorbic acid (AA), GYY4137, and NaHS served as positive controls, while the unmodified nucleosides were used as reference compounds.
The inhibition ratio (IR) was calculated as follows: [drawing 1] where Ac is the absorbance when methanol is added instead of the sample and As is the absorbance when the testing sample solution is added.
The antioxidant capacity was expressed as the concentration needed to achieve a 50% inhibition of the free radical (IC50). The IC50 values were calculated by plotting the percent of inhibition as a function of sample concentration.

[3] = ABTS radical cation decolorization assay; details: 0.1 mM, compared with parent dithioacetates 22 and 24
Experimental: The ABTS decolorization assay was carried out as described by Szoke et al.[54] Briefly, the method is based on the scavenging of (2,2′-azinobis-(3-ethylbenzothiazoline-6-sulfonic acid) ABTS^•+ radical cation. The decolorization caused by the compound is compared to the decolorization induced by Trolox (6-hydroxy-2,5,7,8-tetramethylchroman-2-carboxylic acid), and expressed as Trolox equivalent antioxidant capacity (TEAC) value. TEAC values were expressed as Trolox equivalents calculated from (Ai − Af)antioxidant/(Ai − Af) Trolox at 0.1 mM concentrations. Briefly, a total of 10 µL sample, 20 µL of Myoglobin Working Solution, and 150 µL of ABTS Substrate Working Solution were mixed and incubated for 5 min at room temperature. At the end of incubation […] of Stop Solution was added and endpoint absorbance at 405 nm was read. All experiments were performed in triplicates and repeated three times.

SARS-CoV-2 = assay type: cell-based; details: medium of Calu-3 cells infected 2 days at the highest compound concentration, plaque assay in Vero E6 cells
[4] = H2S release detected with amperometric H2S-specific sensor in DMEM; details: DMEM with 10% FBS, 0.28-0.32 mM compound
Experimental: The H2S-donating ability of compound 22, 24, 27, 29 and 30 (0.5 mg dissolved in 0.1 mL of DMSO) was detected in Dulbecco’s modified Eagle’s medium (DMEM) (4.9 mL) supplemented with 10% fetal bovine serum and 1% penicillin-streptomycin. The final concentrations were 0.31 mM for compound 22, 0.29 mM for compound 24, 0.28 mM for compound 27, 0.32 mM for compound 29 and 0.32 mM for compound 30, respectively. The released H2S was detected by an amperometric, H2S specific sensor (ISO-H2S-100, World Precision Instruments, Saratosa, FL, USA) connected to a WPI TBR 1025 One-Channel Free Radical Analyzer. The sensor was set to 10 nA range and poise voltage to + 150 mV. Before the measurements the sensor was polarized in phosphate buffered saline (PBS) for 12 h[19]. The H2S-release of NaHS was detected in distilled water (0.1 mg in 5 mL of H2O; 0.36 mM) and the H2S-release of GYY4137 was measured in DMEM (0.5 mg of GYY4137 in 5 mL of medium; 0.27 mM).

[5] = tested on: SARS-CoV-2 (strain hCoV-19/Czech Republic/NRL_6632_2/2020); assay: Anti-SARS-CoV-2 cytopathic-effect-based assay in Calu-3 cells (CellTiter-Glo); assay type: cell-based; details: compound added 2 h after infection, MOI 0.3, read after two days, read-out: EC50 ± SE, anti-SARS-CoV-2 activity
Calu-3 cells = assay: Cytotoxicity in Calu-3 cells (CellTiter-Glo); assay type: cell-based, human; details: Calu-3 cells, no virus, two days incubation; read-out: CC50 ± SE, cytotoxicity in Calu-3 cells
Experimental: Cytotoxicity was evaluated by incubating the same two-fold serial dilutions of each compound with Calu-3 cells as above in the absence of the virus. Following two days incubation at 37 °C in 5% CO2, the cell viability was determined as above. The compound concentrations resulting in 50% reduction of cell viability (CC50) were calculated from plots of percentage of luminescence versus log10 drug concentration as above. Remdesivir was used as control in both assays.

[6] = anaesthetized rats, 2 mg/kg i.v.
[7] = after 30 min incubation, without extract, read-out: DPPH IC50 30 min
[8] = measured immediately, without extract, read-out: DPPH IC50 immediately
[9] = after 30 min incubation, with 20 µL homogenized rat heart extract, read-out: DPPH IC50 30 min, + extract (20 µL)
[10] = measured immediately, with 20 µL homogenized rat heart extract, read-out: DPPH IC50 immediately, + extract (20 µL)

Row | Molecule | IC50 [2, 7] | IC50 [2, 8] | SARS-CoV-2 titer reduction (SARS-CoV-2) | persistence of measurable H2S release [4] | time at which H2S gas release reached the maximum level [4] | EC50 [5] | CC50 (Calu-3 cells) | also measured
1 | Nc1ncnc2c1ncn2[C@@H]1O[C@H](CO)[C@@H](O)[C@H]1O [Adenosine, reference compound] | – | – | – | – | – | – | – | Ejection Fraction ([1]; 2 mg/kg i.v.): 71.25±2.958%; Heart rate ([1]; 2 mg/kg i.v.): 67.38±16.46 bpm; PR interval ([1]; 2 mg/kg i.v.): 59.50 ± 10.63 ms; QT interval ([1]; 2 mg/kg i.v.): 195.0 ± 31.69 ms; Stroke Volume ([1]; 2 mg/kg i.v.): 396.8 ± 130.4 µL; time within which negative chronotropic effect dissipated [1, 6]: approximately 60 s; heart block (in words) ([1]; rat, in vivo, iv, 2 mg/kg): induced heart block
2 | O=C1O[C@H]([C@@H](O)CO)C(O)=C1O [Ascorbic acid (AA), Ascorbic acid, reference compound] | 60 µM | 60 µM | – | – | – | – | – | DPPH inhibition ratio (IR) after 30-min incubation ([2]; after 30 min incubation): 97.13%; DPPH inhibition ratio (IR) immediately ([2]; immediately): 97.25%
3 | O=c1ccn([C@@H]2O[C@H](CS)[C@@H](O)[C@H]2O)c(=O)[nH]1 [Compound 32, 5′-Thiouridine] | 570 µM | 710 µM | – | – | – | – | – | DPPH inhibition ratio after 30 min incubation ([2]; 2 mM, after 30 min incubation): 90%; DPPH inhibition ratio immediately ([2]; 2 mM, immediately): 70–80%; DPPH activity lower than that of ascorbic acid ([2]; from IC50 values, relative to ascorbic acid): 10 times; ABTS antioxidant activity (Trolox equivalents), in words [3]: higher antioxidant activity than the parent dithioacetate derivatives
4 | C1COCCN1.COc1ccc(P(=S)(S)N2CCOCC2)cc1 (stereo not drawn) [GYY4137, reference compound] | – | – | – | – | – | – | – | DPPH inhibition ratio (IR) after 30-min incubation ([2]; after 30 min incubation): 10.63%; DPPH inhibition ratio (IR) immediately ([2]; immediately): 5.95%
5 | [Na+].[SH-] [NaHS, sodium hydrosulfide, reference compound] | – | – | – | – | – | – | – | DPPH inhibition ratio (IR) after 30-min incubation ([2]; after 30 min incubation): 90% and 90.03%; DPPH inhibition ratio (IR) immediately ([2]; immediately): 56.14%
6 | O=c1ccn([C@@H]2O[C@H](CO)[C@@H](O)[C@H]2O)c(=O)[nH]1 [Uridine, reference compound] | > 100000 µM | > 100000 µM | – | – | – | – | – | –
7 | S-(Adenosine-5′-yl)-dithioacetic acid [Compound 24] | 2580 µM | 3540 µM | 0 log10 PFU/mL | remained at a measurable level even after two hours | 10 to 20 min | 173 ± 24 µM | ~1000 µM | IC50 [2, 9]: 1620 µM; IC50 [2, 10]: 2660 µM; Ejection Fraction ([1]; 2 mg/kg i.v.): 80.70±5.230%; Heart rate ([1]; 2 mg/kg i.v.): 120.5±29.19 bpm; PR interval ([1]; 2 mg/kg i.v.): 47.00 ± 3.742 ms; QT interval ([1]; 2 mg/kg i.v.): 172.3 ± 46.85 ms; Stroke Volume ([1]; 2 mg/kg i.v.): 416.5 ± 93.56 µL; duration of negative chronotropic action compared with adenosine [1, 6]: their duration of action was longer; heart block (in words) [1, 6]: None of the new compounds (22, 24, and 34) induced complete heart block or pauses
8 | S-(Cytidine-5′-yl)-dithioacetic acid [Compound 29] | – | – | 0.13 log10 PFU/mL | remained at a measurable level even after two hours | 10 to 20 min | > 1000 µM | > 1000 µM | –
9 | S-(Guanosine-5′-yl)-dithioacetic acid [Compound 27] | – | – | 0.38 log10 PFU/mL | remained at a measurable level even after two hours | 10 to 20 min | 158 ± 34 µM | > 1000 µM | –
10 | S-(Thymidine-5′-yl)-dithioacetic acid [Compound 30] | – | – | 0.01 log10 PFU/mL | remained at a measurable level even after two hours | 10 to 20 min | 621 ± 181 µM | 764 ± 82 µM | –
11 | S-(Uridine-5′-yl)-dithioacetic acid [Compound 22] | 3630 µM | 5560 µM | 0.02 log10 PFU/mL | remained at a measurable level even after two hours | 10 to 20 min | > 1000 µM | > 1000 µM | IC50 [2, 9]: 1570 µM; IC50 [2, 10]: 3520 µM; Ejection Fraction ([1]; 2 mg/kg i.v.): 68.70±4.226%; Heart rate ([1]; 2 mg/kg i.v.): 172.3±19.45 bpm; PR interval ([1]; 2 mg/kg i.v.): 51.2 ± 7.530 ms; QT interval ([1]; 2 mg/kg i.v.): 122.2 ± 10.73 ms; Stroke Volume ([1]; 2 mg/kg i.v.): 344.6 ± 81.32 µL; heart block (in words) [1, 6]: None of the new compounds (22, 24, and 34) induced complete heart block or pauses

Source: article PMC11754443, “Synthesis, H2S releasing properties, antiviral and antioxidant activities and acute cardiac effects of nucleoside 5′-dithioacetates” (Scientific Reports, 2025)
